According to ChEMBL document CHEMBL6109105, “Design, synthesis and antibacterial evaluation of oxazolidinone derivatives containing N-methylglycyl or quaternary ammonium salts” (Bioorg Med Chem, 2025):
Converted amounts (≈) assume the structure as drawn. The source made the active and inactive calls. No cut-off for these calls is given here.

Columns and labels:
[1] = Hemolytic activity in sheep RBC assessed as hemolysis incubated for 1 hrs by microplate reader analysis; format: toxicity, cell-based, Ovis aries, Erythrocyte; conditions: sheep red blood cells
Staphylococcus aureus [2] = assay: Antibacterial activity against Staphylococcus aureus ATCC 29213 assessed as inhibition of bacterial growth incubated for 16 to 18 hrs by microbroth dilution method; format: functional; conditions: time 16-18 hrs, read-out: MIC100
Enterococcus faecalis [3] = assay: Antibacterial activity against Enterococcus faecalis ATCC 29212 assessed as inhibition of bacterial growth incubated for 16 to 18 hrs by microbroth dilution method; format: functional; conditions: time 16-18 hrs, read-out: MIC100
Escherichia coli = assay: Antibacterial activity against Escherichia coli ATCC 25922 assessed as inhibition of bacterial growth incubated for 16 to 18 hrs by microbroth dilution method; format: functional; conditions: time 16-18 hrs, read-out: MIC100
[4] = tested on: Stenotrophomonas maltophilia; assay: Antibacterial activity against Stenotrophomonas maltophilia ATCC 17808 assessed as inhibition of bacterial growth incubated for 16 to 18 hrs by microbroth dilution method; format: functional; conditions: time 16-18 hrs, read-out: MIC100
Staphylococcus aureus [5] = assay: Antibacterial activity against Staphylococcus aureus ATCC 29213 assessed as inhibition of bacterial growth by CLSI protocol based broth liquid microdilution method; format: functional
Staphylococcus aureus [6] = assay: Antibacterial activity against methicillin-resistant Staphylococcus aureus assessed as inhibition of bacterial growth by CLSI protocol based broth liquid microdilution method; format: functional
Enterococcus = assay: Antibacterial activity against vancomycin-resistant enterococcus assessed as inhibition of bacterial growth by CLSI protocol based broth liquid microdilution method; format: functional
Enterococcus faecalis [7] = assay: Induction of ROS accumulation in Enterococcus faecalis assessed as fluorescence intensity at 8 times of MIC incubated for 30 mins by DCFH-DA staining based microplate reader analysis; format: functional; conditions: 0.5 h
Enterococcus faecalis [8] = assay: Antipersister-activity against in Enterococcus faecalis assessed as log reduction in persistent cells at 32 times of MIC preincubated with 100 times of MIC of rifampicin for 24 hrs followed by compound addition and measured after 8 hrs by drop plate counting method; format: functional
Enterococcus faecalis [9] = assay: Disruption of preformed biofilm in Enterococcus faecalis assessed as bacterial survival rate at 16 times of MIC measured after 24 hrs relative to control; format: functional
Cell membrane [10] = assay: Induction of cell membrane damage in Enterococcus faecalis assessed as nucleic acid leakage at 8 times of MIC incubated for 2 hrs by fluorescence spectrophotometric analysis; format: subcellular
Enterococcus faecalis [11] = assay: Induction of ROS-dependent oxidative stress in Enterococcus faecalis assessed as decrease in GSH activity at 8 times of MIC (reference value: 1.34 %); format: functional; design: scale not given: the % may be the effect or the level left
Enterococcus faecalis [12] = assay: Post-antibiotic affect in Enterococcus faecalis assessed as reduction in growth rate at 16 times of MIC measured after 1 hrs; format: functional, organism-based
Enterococcus faecalis [13] = assay: Post-antibiotic affect in Enterococcus faecalis assessed as reduction in growth rate at 8 times of MIC measured after 1 hrs; format: functional, organism-based
Cell membrane [14] = assay: Induction of cell membrane damage in Enterococcus faecalis assessed as nucleic acid leakage at 32 times of MIC incubated for 2 hrs by fluorescence spectrophotometric analysis; format: subcellular
Enterococcus faecalis [15] = assay: Antibacterial activity against Enterococcus faecalis assessed as inhibition of bacterial growth incubated for 3 hrs in presence of 50% plasma by dilution method; format: functional
Cell membrane [16] = assay: Induction of cytoplasmic membrane permeability in Enterococcus faecalis assessed as increase in fluorescence intensity at 8 times of MIC by PI staining based analysis
[17] = Cytotoxicity against human HeLa cells assessed as cell viability at 64 microg/ml incubated for 24 hrs by CCK8 assay relative to control; format: toxicity, cell-based; conditions: at 64 µg/mL, read-out: Activity
Enterococcus faecalis [18] = assay: Antibacterial activity against Enterococcus faecalis assessed as inhibition of bacterial growth incubated for 3 hrs in presence of 50% MHB by dilution method; format: functional, organism-based
Cell membrane [19] = assay: Induction of cytoplasmic membrane depolarization in Enterococcus faecalis assessed as increase in fluorescence intensity by DiSC35 dye based microplate reader analysis
Enterococcus faecalis [20] = assay: Antibacterial activity against Enterococcus faecalis assessed as post-antibiotic effect at 8 times of MIC measured up to 8 hrs; format: functional
Enterococcus faecalis [21] = assay: Disruption of preformed biofilm in Enterococcus faecalis assessed as bacterial survival rate at 32 times of MIC measured after 24 hrs relative to control; format: functional
Cell membrane [22] = assay: Induction of cell membrane damage in Enterococcus faecalis assessed as nucleic acid leakage at 16 times of MIC incubated for 2 hrs by fluorescence spectrophotometric analysis; format: subcellular

Compound | HC50 at 1 h [1] [µg/mL] | MIC (Staphylococcus aureus [2]) [µg/mL] | MIC (Enterococcus faecalis [3]) [µg/mL] | MIC (Escherichia coli) [µg/mL] | MIC [4] [µg/mL] | other results
CC(=O)NC[C@H]1CN(c2ccc(N3CCN(C(=O)CN(C)Cc4cccc(Cl)c4)CC3)c(F)c2)C(=O)O1 | > 1280 | 8 (≈ 15 µM) | 2 (≈ 3.76 µM) | > 128 | > 128 | 
CC(=O)NC[C@H]1CN(c2ccc(N3CCN(C(=O)CN(C)Cc4ccc(C(F)(F)F)cc4)CC3)c(F)c2)C(=O)O1 | > 1280 | 16 (≈ 28.3 µM) | 2 (≈ 3.54 µM) | > 128 | > 128 | 
CC(=O)NC[C@H]1CN(c2ccc(N3CCN(/N=C\c4ccc([N+](=O)[O-])o4)CC3)c(F)c2)C(=O)O1 |  |  |  |  |  | MIC (Staphylococcus aureus [5]): 0.25 µg/mL (≈ 0.527 µM); MIC (Staphylococcus aureus [6]): 1 µg/mL (≈ 2.11 µM); MIC (Enterococcus): 1 µg/mL (≈ 2.11 µM)
C[C@@H](O)[C@H]1C(=O)N2C(C(=O)O)=C(S[C@@H]3CN[C@H](C(=O)N(C)C)C3)[C@H](C)[C@H]12 [MEROPENEM] |  |  |  | 0.031 (≈ 0.0808 µM) | 0.031 (≈ 0.0808 µM) | 
CN[C@H](CC(C)C)C(=O)N[C@H]1C(=O)N[C@@H](CC(N)=O)C(=O)N[C@H]2C(=O)N[C@H]3C(=O)N[C@H](C(=O)N[C@H](C(=O)O)c4cc(O)cc(O)c4-c4cc3ccc4O)[C@H](O)c3ccc(c(Cl)c3)Oc3cc2cc(c3O[C@@H]2O[C@H](CO)[C@@H](O)[C@H](O)[C@H]2O[C@H]2C[C@](C)(N)[C@H](O)[C@H](C)O2)Oc2ccc(cc2Cl)[C@H]1O [VANCOMYCIN] |  |  | 1 (≈ 0.69 µM) |  |  | 
CCC[N+](C)(C)CC(=O)N1CCN(c2ccc(N3C[C@H](CNC(C)=O)OC3=O)cc2F)CC1.[Br-] | > 1280 | 64 | 64 | > 128 | > 128 | 
CC(=O)NC[C@H]1CN(c2ccc(N3CCN(C(=O)CN(C)Cc4cccc(Br)c4)CC3)c(F)c2)C(=O)O1 | > 1280 | 8 (≈ 13.9 µM) | 4 (≈ 6.94 µM) | > 128 | > 128 | 
CC(=O)NC[C@H]1CN(c2ccc(N3CCN(C(=O)C[N+](C)(C)Cc4ccccc4)CC3)c(F)c2)C(=O)O1.[Br-] | > 1280 | 128 | 4 | > 128 | > 128 | 
CC(=O)NC[C@H]1CN(c2ccc(N3CCOCC3)c(F)c2)C(=O)O1 [LINEZOLID] | > 1280 | 1 (≈ 2.96 µM) |  | > 128 | > 128 | Flu intensity (Enterococcus faecalis [7]): 377 a.u.; Activity (Enterococcus faecalis [8]): 3.24 log10CFU/ml; Activity (Enterococcus faecalis [9]): 1.36%; Activity (Cell membrane [10]): Active; Activity (Enterococcus faecalis [11]): 13.01%; Activity (Enterococcus faecalis [12]): Active; Activity (Enterococcus faecalis [13]): Active; Activity (Cell membrane [14]): Active; Activity (Enterococcus faecalis [15]): Active; Activity (Cell membrane [16]): inactive; viability at 24 h, 64 microg/ml [17]: 56.5%; Activity (Enterococcus faecalis [18]): Active; Activity (Cell membrane [19]): inactive; PAE (Enterococcus faecalis [20]): 0.67 h; Activity (Enterococcus faecalis [21]): 0.49%; Activity (Cell membrane [22]): Active
CC[N+](C)(C)CC(=O)N1CCN(c2ccc(N3C[C@H](CNC(C)=O)OC3=O)cc2F)CC1.[Br-] | > 1280 | 64 | 32 | > 128 | > 128 | 
CC(=O)NC[C@H]1CN(c2ccc(N3CCN(C(=O)CN(C)Cc4cccc(C)c4)CC3)c(F)c2)C(=O)O1 | > 1280 | 16 (≈ 31.3 µM) | 4 (≈ 7.82 µM) | > 128 | > 128 | 
CC(=O)NC[C@H]1CN(c2ccc(N3CCN(C(=O)CN(C)Cc4cccc(C#N)c4)CC3)c(F)c2)C(=O)O1 | > 1280 | 8 (≈ 15.3 µM) | 4 (≈ 7.65 µM) | > 128 | > 128 | 
CC(=O)NC[C@H]1CN(c2ccc(N3CCN(C(=O)C[N+](C)(C)Cc4ccc(C(F)(F)F)cc4)CC3)c(F)c2)C(=O)O1.[Br-] | > 1280 | 128 | 128 | > 128 | > 128 | 
